# Experimental data as given in patent EP1310511A2, “Oligopeptides for promoting hair growth” (Sumitomo Electric Industries, Ltd., priority 2001, dated 2003).
# Where no end group is shown, it is not given here.
# Test system: C57BL/6 mice
# Experiment: Evaluation of hair growth promoting activity by in vivo method (transition from telogen to anagen on shaved back)
# Details: 0.2 ml of 0.15mg/ml solution in 50% ethanol/PBS on shaved back, once a day, 5 days in a week, until 38th day
# Experimental: C3H and C57BL/6 mice are known to have sustained telogen for about 50 days from the 45th day after the birth to around the 95th day. Their hair cycle is easily judged based on the skin color changes, i.e., from pink in telogen to gray or black in anagen. A test for evaluating whether or not the administration the oligopeptides of the present invention promotes the transition from telogen to anagen was carried out using the mice. Seven weeks old (48 to 50-day old, female) C57BL/6 mice were purchased and hair of the back (about 3×2.5 cm^2) was carefully shaved with electric clippers for animals so as not to injure the skin, and the hair cycle was confirmed to be in telogen from the skin color. The oligopeptide solution prepared above was applied to five mice in each group, once a day and 5 days in a week in the amount of 0.2 ml until 38th day from the start of the test. The application was carried out by using a syringe without needle. […]
# Plural persons (two persons) observed the mice twice a week by naked eye for evaluation, and gave a 6-graded score depending on a ratio of hair restoration area based on the hair shaved area. […] Hair growth scores were calculated as follows. […] The sum of the above scores in each group was determined as the hair growth score. […]
sequence,measurement,value
SIEQSCDQDE [oligopeptide comprising murine pep7 region],hair restoration / hair growth promoting activity (hair growth score versus control group),has hair growth promoting activity
